Assay results taken from the supplement of paper PMC10307832.

Tests used:
Test in all cases: relative viability (nuclei count vs DMSO), 5 days (fraction); higher = more cells survive
Sunitinib + Dasatinib = compound: CCN(CC)CCNC(=O)c1c(C)[nH]c(/C=C2\C(=O)Nc3ccc(F)cc32)c1C [Sunitinib] + Cc1nc(Nc2ncc(C(=O)Nc3c(C)cccc3Cl)s2)cc(N2CCN(CCO)CC2)n1 [Dasatinib] (partner 0.075 µM)
Procedure, shortened: (§1)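 Relative viability divides the nuclei count in treated wells by that in vehicle wells. Lung cancer cell lines were seeded in 1536-well plates, dosed by pin tool the next day, and fixed and stained after 5 days in one step with final 0.05% Triton X-100, 1% formaldehyde and 1 ug/ml Hoechst. Dosing was a single drug or a fixed anchor-drug dose plus five library-drug doses (not always all listed) in √10 steps, and values are medians of duplicate plates imaged at 4×.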

Sunitinib + Pemetrexed = compound: CCN(CC)CCNC(=O)c1c(C)[nH]c(/C=C2\C(=O)Nc3ccc(F)cc32)c1C [Sunitinib] + Nc1nc2[nH]cc(CCc3ccc(C(=O)N[C@@H](CCC(=O)O)C(=O)O)cc3)c2c(=O)[nH]1 [Pemetrexed] (partner 0.2 µM)
Procedure, shortened: as §1

Sunitinib + Crizotinib = compound: CCN(CC)CCNC(=O)c1c(C)[nH]c(/C=C2\C(=O)Nc3ccc(F)cc32)c1C [Sunitinib] + C[C@@H](Oc1cc(-c2cnn(C3CCNCC3)c2)cnc1N)c1c(Cl)ccc(F)c1Cl [Crizotinib] (partner 1 µM)
Procedure, shortened: as §1

Sunitinib + Lapatinib = compound: CCN(CC)CCNC(=O)c1c(C)[nH]c(/C=C2\C(=O)Nc3ccc(F)cc32)c1C [Sunitinib] + CS(=O)(=O)CCNCc1ccc(-c2ccc3ncnc(Nc4ccc(OCc5cccc(F)c5)c(Cl)c4)c3c2)o1 [Lapatinib] (partner 2 µM)
Procedure, shortened: as §1

Row | Cell Line | relative viability (Sunitinib + Dasatinib; first compound 0.02 µM) | relative viability (Sunitinib + Dasatinib; first compound 0.06325 µM) | relative viability (Sunitinib + Dasatinib; first compound 0.2 µM) | relative viability (Sunitinib + Dasatinib; first compound 0.6325 µM) | relative viability (Sunitinib + Dasatinib; first compound 2 µM) | relative viability (Sunitinib + Pemetrexed; first compound 0.02 µM) | relative viability (Sunitinib + Pemetrexed; first compound 0.06325 µM) | relative viability (Sunitinib + Pemetrexed; first compound 0.2 µM) | relative viability (Sunitinib + Pemetrexed; first compound 0.6325 µM) | relative viability (Sunitinib + Pemetrexed; first compound 2 µM) | relative viability (Sunitinib + Crizotinib; first compound 0.02 µM) | relative viability (Sunitinib + Crizotinib; first compound 0.06325 µM) | relative viability (Sunitinib + Crizotinib; first compound 0.2 µM) | relative viability (Sunitinib + Crizotinib; first compound 0.6325 µM) | relative viability (Sunitinib + Crizotinib; first compound 2 µM) | relative viability (Sunitinib + Lapatinib; first compound 0.02 µM) | relative viability (Sunitinib + Lapatinib; first compound 0.06325 µM) | relative viability (Sunitinib + Lapatinib; first compound 0.2 µM) | relative viability (Sunitinib + Lapatinib; first compound 0.6325 µM) | relative viability (Sunitinib + Lapatinib; first compound 2 µM)
1 | NCI-H1993 | 0.735 | 0.545 | 0.779 | 0.654 | 0.645 | 0.436 | 0.563 | 0.584 | 0.55 | 0.575 | 0.846 | 0.741 | 0.872 | 0.966 | 0.74 | 0.835 | 0.889 | 0.834 | 0.836 | 0.849
2 | NCI-H2085 | 0.271 | 0.269 | 0.222 | 0.256 | 0.26 | 0.909 | – | 1.04 | 0.952 | 0.87 | 0.844 | 0.817 | 1.03 | 0.85 | 0.798 | 0.759 | 0.814 | 0.791 | 0.856 | 0.839
3 | NCI-H838 | 0.324 | 0.293 | 0.322 | 0.291 | 0.285 | 0.239 | 0.258 | 0.263 | 0.243 | 0.228 | 0.768 | 0.863 | 0.916 | 0.884 | 0.64 | 0.885 | 1.38 | 1.22 | 1.09 | 0.894
4 | NCI-H1944 | 0.205 | 0.246 | 0.211 | 0.239 | 0.211 | 0.588 | – | 0.772 | 0.684 | 0.655 | – | 1.06 | 1.34 | 1.24 | 1.18 | 0.648 | 0.932 | 0.997 | 0.849 | 0.964
5 | NCI-H1650 | 0.321 | 0.337 | 0.309 | 0.358 | 0.268 | 0.399 | 0.307 | 0.411 | 0.346 | 0.448 | 0.821 | 0.903 | 1.14 | 0.991 | 0.829 | 0.559 | – | 0.769 | 0.739 | 0.737
6 | NCI-H1355 | 0.715 | 0.804 | 0.943 | 0.756 | 0.674 | 0.997 | 1.14 | 1.1 | 1.08 | – | 0.982 | 1.08 | 1.25 | 1.1 | 1.12 | 1.01 | 1.04 | 1.12 | 1.07 | 1.06
7 | HOP-62 | 0.616 | 0.744 | 0.826 | 0.777 | 0.682 | 0.33 | 0.366 | 0.337 | 0.369 | 0.417 | 0.862 | 1.23 | 0.971 | – | 1.03 | 0.961 | 1.09 | 1.01 | 1.01 | 1.1
8 | NCI-H2405 | 0.214 | 0.206 | 0.224 | 0.23 | 0.212 | 1.07 | 1.1 | 1.21 | 1.13 | 1.13 | 0.803 | 0.868 | 0.955 | 0.862 | 0.889 | 1.03 | 1.21 | 1.18 | 1.18 | –
9 | NCI-H358 | 0.151 | 0.187 | 0.182 | 0.19 | 0.174 | 0.178 | 0.181 | 0.177 | 0.177 | 0.167 | 0.722 | 0.652 | 0.562 | 0.642 | 0.508 | 0.421 | 0.6 | 0.457 | 0.514 | 0.377
10 | EPLC-272H | 0.385 | 0.418 | 0.374 | 0.409 | 0.333 | 0.39 | 0.298 | 0.314 | 0.42 | 0.363 | 0.906 | 0.736 | 0.959 | – | 0.706 | 0.837 | 1.02 | 1.14 | 0.937 | 0.915
11 | NCI-H3122 | 0.725 | 0.985 | 0.84 | 0.932 | 0.853 | 0.201 | 0.215 | 0.202 | 0.185 | 0.205 | 0.273 | 0.247 | 0.249 | 0.241 | 0.297 | 0.907 | 0.985 | 1.04 | – | 0.992
12 | NCI-H1651 | 0.389 | 0.506 | 0.59 | 0.462 | 0.527 | 0.597 | 0.609 | 0.617 | 0.481 | 0.604 | 0.866 | 0.843 | 0.89 | 0.921 | 0.917 | 0.766 | 1.21 | 1.06 | 0.893 | 0.923
13 | SK-MES-1 | 0.354 | 0.457 | 0.341 | 0.319 | 0.308 | 0.851 | 0.946 | 1.09 | 1.13 | 0.903 | 0.928 | 0.996 | 1.07 | 1.12 | 0.959 | 0.471 | 0.502 | 0.487 | 0.481 | 0.419
14 | HCC-366 | 0.526 | 0.645 | 0.622 | 0.668 | 0.574 | 0.154 | 0.168 | 0.168 | 0.194 | 0.497 | 0.559 | 0.519 | 1.02 | 0.593 | 0.551 | 1.04 | 1.17 | 1.33 | – | 1.07
15 | NCI-H460 | 0.471 | 0.631 | 0.676 | 0.602 | 0.444 | 0.0562 | 0.061 | 0.0606 | 0.0589 | 0.0505 | 0.874 | 0.945 | 1.2 | 1.17 | 0.638 | 0.85 | – | 1.3 | 1.08 | 0.927
16 | COR-L 105 | 0.316 | 0.361 | 0.286 | 0.379 | 0.543 | 1.08 | 1.01 | 1.1 | 1.14 | 1.22 | 0.513 | 0.811 | 0.995 | 0.894 | 0.695 | 0.336 | 0.459 | 0.358 | 0.36 | 0.372
